Measured values taken from the supplement of paper PMC10307832.

Legend:
Test in all cases: relative viability (nuclei count vs DMSO), 5 days (fraction); higher = more cells survive
VX-11e + Vorinostat = compound: CC1=CN=C(N=C1C2=CNC(=C2)C(=O)N[C@H](CO)C3=CC(=CC=C3)Cl)NC4=C(C=C(C=C4)F)Cl [VX-11e] + O=C(CCCCCCC(=O)Nc1ccccc1)NO [Vorinostat] (partner 1 µM)
Procedure, shortened: (§1)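 The day after seeding in 1536-well plates, lung cancer cell lines were treated by pin tool with a single drug, or with a fixed anchor-drug dose together with five library-drug doses (not always all listed) in √10 steps. After 5 days, a combined fix-and-stain solution (final 0.05% Triton X-100, 1% formaldehyde, 1 ug/ml Hoechst) was added. Nuclei counted on 4× images gave relative viability as treated counts over vehicle counts, reported as the median of duplicate plates.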

VX-11e + Pemetrexed = compound: CC1=CN=C(N=C1C2=CNC(=C2)C(=O)N[C@H](CO)C3=CC(=CC=C3)Cl)NC4=C(C=C(C=C4)F)Cl [VX-11e] + Nc1nc2[nH]cc(CCc3ccc(C(=O)N[C@@H](CCC(=O)O)C(=O)O)cc3)c2c(=O)[nH]1 [Pemetrexed] (partner 0.2 µM)
Procedure, shortened: as §1

VX-11e + Navitoclax = compound: CC1=CN=C(N=C1C2=CNC(=C2)C(=O)N[C@H](CO)C3=CC(=CC=C3)Cl)NC4=C(C=C(C=C4)F)Cl [VX-11e] + CC1(C)CCC(c2ccc(Cl)cc2)=C(CN2CCN(c3ccc(C(=O)NS(=O)(=O)c4ccc(N[C@H](CCN5CCOCC5)CSc5ccccc5)c(S(=O)(=O)C(F)(F)F)c4)cc3)CC2)C1 [Navitoclax] (partner 0.5 µM)
Procedure, shortened: as §1

VX-11e + Linsitinib = compound: CC1=CN=C(N=C1C2=CNC(=C2)C(=O)N[C@H](CO)C3=CC(=CC=C3)Cl)NC4=C(C=C(C=C4)F)Cl [VX-11e] + C[C@]1(O)C[C@@H](c2nc(-c3ccc4ccc(-c5ccccc5)nc4c3)c3c(N)nccn32)C1 [Linsitinib] (partner 1 µM)
Procedure, shortened: as §1

Cell Line | relative viability (VX-11e + Vorinostat; first compound 0.04 µM) | relative viability (VX-11e + Vorinostat; first compound 0.1265 µM) | relative viability (VX-11e + Vorinostat; first compound 1.265 µM) | relative viability (VX-11e + Vorinostat; first compound 4 µM) | relative viability (VX-11e + Pemetrexed; first compound 0.04 µM) | relative viability (VX-11e + Pemetrexed; first compound 0.1265 µM) | relative viability (VX-11e + Pemetrexed; first compound 1.265 µM) | relative viability (VX-11e + Pemetrexed; first compound 4 µM) | relative viability (VX-11e + Navitoclax; first compound 0.04 µM) | relative viability (VX-11e + Navitoclax; first compound 0.1265 µM) | relative viability (VX-11e + Navitoclax; first compound 1.265 µM) | relative viability (VX-11e + Navitoclax; first compound 4 µM) | relative viability (VX-11e + Linsitinib; first compound 0.04 µM) | relative viability (VX-11e + Linsitinib; first compound 0.1265 µM) | relative viability (VX-11e + Linsitinib; first compound 1.265 µM) | relative viability (VX-11e + Linsitinib; first compound 4 µM) | relative viability (VX-11e + Vorinostat; first compound 0.4 µM) | relative viability (VX-11e + Pemetrexed; first compound 0.4 µM) | relative viability (VX-11e + Navitoclax; first compound 0.4 µM) | relative viability (VX-11e + Linsitinib; first compound 0.4 µM)
LOU-NH91 | 0.889 | 0.79 | 0.626 | 0.781 | 0.448 | 0.373 | 0.367 | 0.358 | 0.751 | 0.692 | 0.593 | 0.581 | 0.919 | 0.952 | 0.946 | 0.733 |  |  |  | 
LU99A | 0.468 | 0.469 | 0.274 | 0.226 | 0.184 | 0.138 | 0.182 | 0.188 | 0.82 | 0.925 | 0.335 | 0.161 | 0.539 | 0.456 | 0.42 | 0.207 | 0.487 | 0.201 | 0.651 | 0.623
LXF-289 | 0.851 | 0.726 | 0.668 | 0.543 | 0.974 | 0.911 | 0.803 | 0.706 | 0.99 | 0.914 | 0.895 | 0.607 | 0.995 | 0.88 | 0.801 | 0.686 |  |  | 0.965 | 0.958
NCI-H23 | 0.562 | 0.581 | 0.148 | 0.182 | 0.517 | 0.583 | 0.312 | 0.222 | 1 | 0.859 | 0.459 | 0.243 | 0.48 | 0.52 | 0.378 | 0.271 | 0.174 | 0.214 | 0.467 | 0.37
NCI-H322M | 0.763 | 0.813 | 0.736 | 0.64 | 0.623 | 0.658 | 0.497 | 0.594 | 1.24 |  | 1.06 | 0.672 | 1.01 |  | 0.688 | 0.534 | 1.13 | 0.641 | 1.23 | 0.781
NCI-H441 | 0.835 | 0.786 | 0.753 | 0.569 | 0.27 | 0.253 | 0.259 | 0.238 | 0.668 | 0.469 | 0.905 | 0.556 | 0.542 | 0.584 | 0.657 | 0.419 |  |  |  | 
NCI-H460 | 0.855 | 0.693 | 0.522 | 0.0489 | 0.0706 | 0.0577 | 0.0564 | 0.0528 | 1.37 | 1.16 | 0.542 | 0.0727 | 1.17 | 0.849 | 0.0925 | 0.017 | 0.692 | 0.0649 | 1.13 | 0.674
NCI-H520 | 0.646 | 0.875 | 0.698 | 0.518 | 0.752 | 0.738 | 0.65 | 0.478 | 0.963 | 1.04 | 1.38 | 0.992 | 0.948 | 0.898 | 1.06 | 0.69 | 0.682 | 0.716 | 1 | 0.827
NCI-H596 | 0.472 | 0.635 | 0.387 | 0.354 | 0.457 | 0.506 | 0.449 | 0.464 | 1.12 | 0.876 | 0.951 | 0.586 | 1.06 | 0.944 | 0.874 | 0.769 | 0.597 | 0.53 | 0.895 | 0.981
NCI-H647 | 0.501 | 0.655 | 0.496 | 0.339 | 0.187 | 0.198 | 0.137 | 0.123 | 1.08 | 1.09 | 0.663 | 0.522 | 1.1 | 1.05 | 0.674 | 0.378 | 0.637 | 0.177 | 0.904 | 1.09
NCI-H838 | 0.774 | 0.669 | 0.639 | 0.591 | 0.236 | 0.235 | 0.229 | 0.217 | 1.17 | 1.1 | 1.1 | 0.861 | 1.06 | 0.933 | 0.887 | 0.79 | 0.681 | 0.239 | 1.05 | 0.96
NCI-H1355 | 0.472 | 0.617 | 0.52 | 0.345 | 0.904 | 0.99 | 1.01 | 0.526 | 0.92 | 0.891 | 0.695 | 0.333 | 0.861 | 0.798 | 0.574 | 0.374 | 0.591 | 0.99 | 0.945 | 0.786
NCI-H1395 | 0.573 | 0.683 | 0.661 | 0.479 | 0.744 | 0.864 | 0.96 | 0.533 | 1.16 | 0.999 | 1.06 | 0.659 | 1.17 | 1.29 | 0.963 | 0.718 |  |  | 0.832 | 0.846
NCI-H1437 | 0.82 | 0.864 | 0.739 | 0.458 | 0.331 | 0.274 | 0.257 | 0.219 | 1.11 | 1.05 | 0.815 | 0.52 | 1.03 | 1.05 | 0.409 | 0.203 | 0.82 | 0.296 | 1.07 | 0.888
NCI-H1651 | 0.526 | 0.557 | 0.517 | 0.569 | 0.469 | 0.608 | 0.479 | 0.484 | 1.06 | 1.1 | 0.893 | 0.939 | 1.05 | 1.02 | 0.927 | 0.758 | 0.55 | 0.553 | 0.968 | 0.797
NCI-H1666 | 1.08 | 0.953 | 0.992 | 0.798 | 0.851 | 0.901 | 0.756 | 0.6 | 0.987 | 1.1 | 0.51 | 0.368 | 0.846 | 0.81 | 0.493 | 0.42 |  |  | 0.848 | 0.594
